Results taken from PubChem BioAssay AID212 (DTP/NCI, 2004).
Where “and” joins values, the source holds several entries; their conditions need not be identical. Equal entries are not always repeated. Results filed as inconclusive are left out.

System: BDF1 mice, colon carcinoma 38 sc, T/C %
Test: NCI In Vivo Anticancer Drug Screen. Data for tumor model Colon Carcinoma 38 (subcutaneous) in B6D2F1 (BDF1) mice
Settings: endpoint: median tumor weight (est.), higher = larger tumour
Summary of the method: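 T/C readout: treated group (T) measurement over vehicle control group (C) measurement. Endpoint is survival or tumor size in mice bearing a transplanted tumor.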

[1] = dose: 25.0 mg/kg/injection, schedule: Q07DX002 (ip), vehicle: saline
[2] = dose: 50.0 mg/kg/injection, schedule: Q07DX002 (ip), vehicle: saline
[3] = dose: 25.0 mg/kg/injection, schedule: Q07DX002 (ip), vehicle: saline with Tween-80
[4] = dose: 50.0 mg/kg/injection, schedule: Q07DX002 (ip), vehicle: saline with Tween-80
[5] = dose: 100.0 mg/kg/injection, schedule: Q07DX002 (ip), vehicle: saline with Tween-80
[6] = dose: 200.0 mg/kg/injection, schedule: Q07DX002 (ip), vehicle: saline with Tween-80
[7] = dose: 400.0 mg/kg/injection, schedule: Q07DX002 (ip), vehicle: saline with Tween-80
[8] = dose: 800.0 mg/kg/injection, schedule: Q07DX002 (ip), vehicle: saline with Tween-80
[9] = dose: 8.0 mg/kg/injection, schedule: Q07DX003 (ip), vehicle: saline with Tween-80
[10] = dose: 32.0 mg/kg/injection, schedule: Q07DX003 (ip), vehicle: saline with Tween-80

Cc1c(N)nc(C(CC(N)=O)NCC(N)C(N)=O)nc1C(=O)NC(C(=O)NC(C)C(O)C(C)C(=O)NC(C(=O)NCCc1nc(-c2nc(C(=O)NCCCNCCCc3ccccn3)cs2)cs1)C(C)O)C(OC1OC(CO)C(O)C(O)C1OC1OC(CO)C(O)C(OC(N)=O)C1O)c1cnc[nH]1 (stereo unspecified)
T/C (dose: 0.1 mg/kg/injection, schedule: Q07DX003 (ip), vehicle: saline): 96 % of control
T/C (dose: 0.2 mg/kg/injection, schedule: Q07DX003 (ip), vehicle: saline): 67 % of control
T/C (dose: 0.4 mg/kg/injection, schedule: Q07DX002 (ip), vehicle: water): 81 % of control
T/C (dose: 0.4 mg/kg/injection, schedule: Q07DX003 (ip), vehicle: saline): 72 % of control
T/C (dose: 0.8 mg/kg/injection, schedule: Q07DX002 (ip), vehicle: water): 66 % of control
T/C (dose: 0.8 mg/kg/injection, schedule: Q07DX003 (ip), vehicle: saline): 105 % of control
T/C (dose: 1.6 mg/kg/injection, schedule: Q07DX002 (ip), vehicle: water): 75 % of control
T/C (dose: 1.6 mg/kg/injection, schedule: Q07DX003 (ip), vehicle: saline): 71 % of control
T/C (dose: 3.2 mg/kg/injection, schedule: Q07DX002 (ip), vehicle: water): 72 % of control
T/C (dose: 3.2 mg/kg/injection, schedule: Q07DX003 (ip), vehicle: saline): 60 % of control
T/C (dose: 6.25 mg/kg/injection, schedule: Q07DX002 (ip), vehicle: saline): 70 % of control
T/C (dose: 6.4 mg/kg/injection, schedule: Q07DX002 (ip), vehicle: water): 41 % of control
T/C (dose: 12.8 mg/kg/injection, schedule: Q07DX002 (ip), vehicle: water): 45 % of control
T/C [1]: 32 % of control and 33 % of control
T/C (dose: 100.0 mg/kg/injection, schedule: Q07DX002 (ip), vehicle: saline): 29 % of control

Cc1nnc2ncccn12
T/C [2]: 84 % of control and 105 % of control
T/C (dose: 200.0 mg/kg/injection, schedule: Q07DX002 (ip), vehicle: saline): 113 % of control and 102 % of control
T/C (dose: 400.0 mg/kg/injection, schedule: Q07DX002 (ip), vehicle: saline): 81 % of control

OC1(CSc2ccccc2)CCCCC1
T/C [3]: 93 % of control
T/C [4]: 47 % of control
T/C [5]: 97 % of control
T/C [6]: 87 % of control
T/C [7]: 77 % of control

CC1OC(=O)C(C(C)C)NC(=O)C(C(C)C)OC(=O)C(C(C)C)NC(=O)C(C)OC(=O)C(C(C)C)NC(=O)C(C(C)C)OC(=O)C(C(C)C)NC(=O)C(C)OC(=O)C(C(C)C)NC(=O)C(C(C)C)OC(=O)C(C(C)C)NC1=O (stereo unspecified)
T/C (dose: 2.5 mg/kg/injection, schedule: Q07DX003 (ip), vehicle: saline with Tween-80): 71 % of control and 90 % of control
T/C (dose: 5.0 mg/kg/injection, schedule: Q07DX003 (ip), vehicle: saline with Tween-80): 79 % of control
T/C (dose: 40.0 mg/kg/injection, schedule: Q07DX003 (ip), vehicle: saline with Tween-80): 37 % of control

C=C1C(=O)C23C(O)CC4C5(C)CCCC4(C(O)OC5)C2C(OC(C)=O)CC1C3O (stereo unspecified)
T/C (dose: 8.0 mg/kg/injection, schedule: Q07DX002 (ip), vehicle: Klucel (hydroxypropylcellulose) (HPC)): 72 % of control
T/C (dose: 8.0 mg/kg/injection, schedule: Q07DX002 (ip), vehicle: saline): 124 % of control
T/C (dose: 16.0 mg/kg/injection, schedule: Q07DX002 (ip), vehicle: Klucel (hydroxypropylcellulose) (HPC)): 72 % of control
T/C (dose: 16.0 mg/kg/injection, schedule: Q07DX002 (ip), vehicle: saline): 106 % of control
T/C (dose: 32.0 mg/kg/injection, schedule: Q07DX002 (ip), vehicle: Klucel (hydroxypropylcellulose) (HPC)): 106 % of control
T/C (dose: 32.0 mg/kg/injection, schedule: Q07DX002 (ip), vehicle: saline): 117 % of control
T/C (dose: 64.0 mg/kg/injection, schedule: Q07DX002 (ip), vehicle: Klucel (hydroxypropylcellulose) (HPC)): 112 % of control
T/C (dose: 64.0 mg/kg/injection, schedule: Q07DX002 (ip), vehicle: saline): 101 % of control
T/C (dose: 128.0 mg/kg/injection, schedule: Q07DX002 (ip), vehicle: Klucel (hydroxypropylcellulose) (HPC)): 79 % of control

C[C@H](N)C(=O)N[C@@H]1[C@H]2C(=C(O)C[C@@H](O)[C@@H]2O)C(=O)O[C@@H]1C
T/C (dose: 150.0 mg/kg/injection, schedule: Q07DX002 (ip), vehicle: saline): 65 % of control
T/C (dose: 300.0 mg/kg/injection, schedule: Q07DX002 (ip), vehicle: saline): 96 % of control
T/C (dose: 1200.0 mg/kg/injection, schedule: Q07DX002 (ip), vehicle: saline): 90 % of control
T/C (dose: 2400.0 mg/kg/injection, schedule: Q07DX002 (ip), vehicle: saline): 96 % of control

Cn1ccc(=Nc2ccc(NC(=O)c3ccc(N=c4ccn(C)c5ccc([N+](=O)[O-])cc45)cc3[N+](=O)[O-])cc2)cc1
T/C [3]: 99 % of control
T/C [4]: 60 % of control
T/C [5]: 105 % of control
T/C [6]: 90 % of control
T/C [7]: 29 % of control
T/C [8]: 67 % of control

Nc1ncnc2c1ccn2C1OC(CO)C(O)C1O (stereo unspecified)
T/C (dose: 0.5 mg/kg/injection, schedule: Q07DX003 (ip), vehicle: Klucel (hydroxypropylcellulose) (HPC)): 110 % of control and 87 % of control
T/C (dose: 1.0 mg/kg/injection, schedule: Q07DX003 (ip), vehicle: Klucel (hydroxypropylcellulose) (HPC)): 74 % of control and 80 % of control
T/C (dose: 2.0 mg/kg/injection, schedule: Q07DX003 (ip), vehicle: Klucel (hydroxypropylcellulose) (HPC)): 84 % of control and 86 % of control

CNC(=O)OCc1c(COC(=O)NC)c(-c2ccccc2)n(C)c1-c1ccccc1
T/C (dose: 100.0 mg/kg/injection, schedule: Q07DX002 (ip), vehicle: distilled water + Tween-80): 62 % of control

O=NN(CCCl)C(=O)NCCCl
T/C (dose: 1.0 mg/kg/injection, schedule: Q07DX002 (ip), vehicle: saline with Tween-80): 92 % of control
T/C (dose: 2.5 mg/kg/injection, schedule: Q07DX002 (ip), vehicle: saline with Tween-80): 66 % of control
T/C (dose: 3.0 mg/kg/injection, schedule: Q07DX002 (ip), vehicle: saline + alcohol): 96 % of control
T/C (dose: 4.0 mg/kg/injection, schedule: Q07DX002 (ip), vehicle: saline with Tween-80): 82 % of control
T/C (dose: 4.0 mg/kg/injection, schedule: Q07DX003 (ip), vehicle: saline with Tween-80): 97 % of control and 98 % of control
T/C (dose: 5.0 mg/kg/injection, schedule: Q07DX002 (ip), vehicle: saline with Tween-80): 82 % of control
T/C (dose: 6.0 mg/kg/injection, schedule: Q07DX002 (ip), vehicle: saline + alcohol): 88 % of control
T/C [9]: 71 % of control and 87 % of control
T/C (dose: 10.0 mg/kg/injection, schedule: Q07DX002 (ip), vehicle: saline with Tween-80): 43 % of control
T/C (dose: 12.0 mg/kg/injection, schedule: Q07DX002 (ip), vehicle: saline + alcohol): 59 % of control
T/C (dose: 20.0 mg/kg/injection, schedule: Q07DX002 (ip), vehicle: saline with Tween-80): 15 % of control
T/C (dose: 24.0 mg/kg/injection, schedule: Q07DX002 (ip), vehicle: saline + alcohol): 37 % of control
T/C [10]: 24 % of control

O=C(O)Cc1cccc2c(=O)c(-c3ccccc3)c(-c3ccccc3)oc12
T/C (dose: 25.0 mg/kg/injection, schedule: Q07DX002 (ip), vehicle: Klucel (hydroxypropylcellulose) (HPC)): 90 % of control
T/C (dose: 50.0 mg/kg/injection, schedule: Q07DX002 (ip), vehicle: Klucel (hydroxypropylcellulose) (HPC)): 92 % of control

CC(=O)OCC1OC(n2ccc(N)nc2=O)C(OC(C)=O)C1OC(C)=O (stereo unspecified)
T/C [1]: 113 % of control and 92 % of control
T/C [2]: 97 % of control and 104 % of control
T/C (dose: 800.0 mg/kg/injection, schedule: Q07DX002 (ip), vehicle: saline): 30 % of control and 36 % of control

COC(=O)C1(F)C(=O)NC(=O)NC1OC (stereo unspecified)
T/C (dose: 100.0 mg/kg/injection, schedule: Q07DX002 (ip), vehicle: Klucel (hydroxypropylcellulose) (HPC)): 90 % of control
T/C [5]: 83 % of control
T/C (dose: 200.0 mg/kg/injection, schedule: Q07DX002 (ip), vehicle: Klucel (hydroxypropylcellulose) (HPC)): 72 % of control
T/C [6]: 83 % of control
T/C [7]: 55 % of control
T/C [8]: 85 % of control

CC1=C(/C=C/C(C)=C/C=C/C(C)=C/CO)C(C)(C)CCC1
T/C [9]: 113 % of control and 106 % of control
T/C [10]: 194 % of control
T/C (dose: 64.0 mg/kg/injection, schedule: Q07DX003 (ip), vehicle: saline with Tween-80): 111 % of control and 122 % of control

O=C(Nc1nncs1)c1cccs1
T/C [5]: 87 % of control and 88 % of control

OCC1OC(n2cnc3cc(Cl)c(Cl)cc32)C(O)C1O (stereo unspecified)
T/C (dose: 12.5 mg/kg/injection, schedule: Q07DX002 (ip), vehicle: saline with Tween-80): 101 % of control
T/C [3]: 98 % of control
T/C [4]: 105 % of control
T/C [5]: 98 % of control
